Measurements: paper PMC4361473, “A New System for Profiling Drug-Induced Calcium Signal Perturbation in Human Embryonic Stem Cell–Derived Cardiomyocytes” (Journal of Biomolecular Screening, 2015)

Tests used:
Cytiva hSCCMs = experiment: SALVO profiling of drug-evoked Ca2+ signal perturbation (fluo-4 confocal imaging); settings: spontaneously oscillating Cytiva; for Effect on Ca2+ handling (SALVO parameters): concentrations up to 30 µM
Text: Cytiva hSCCMs were derived from monolayer differentiation of an H7 hESC cell line that had been expanded under feeder-free conditions and then subjected to a proprietary differentiation protocol (GE Healthcare, Piscataway, NJ, USA).[13] […] Cells were thawed and seeded into 7-mm^2 chambers created by the adherence of silicon gaskets (CultureWell MultiWell 3 mm in diameter, 1-mm-depth inserts [Life Technologies]) on glass-bottomed culture chambers (In Vitro Scientific, Sunnyvale, CA, USA) that had been precoated with Matrigel (BD Biosciences, Franklin Lakes, NJ, USA), Franklin Lakes, NJ, USA diluted 1:30 (v/v) in Knockout DMEM (Life Technologies, Carlsbad, CA, USA). […] Cells were allowed to adhere to the coverslip for 2 h before the dish was filled with RPMI/B27 (2 mL). Medium was exchanged every 48 h.
Cells were incubated with fluo-4 AM (5 µM) (Life Technologies) for 1 h at 37°C before coverslips were flooded with RPMI/B27 (2 mL). […] Cells were maintained at 37 °C throughout experiments. […] The application of caffeine (5 mM final concentration) was used to trigger sarcoplasmic reticulum (SR) Ca^2+ release and thereby estimate the intra-SR Ca^2+ store load.
Taking our lead from Uhlen’s method of using spectral analysis to investigate the organization of Ca^2+ signals,[14] we developed SALVO to decode the spatiotemporal patterning of Ca^2+ oscillations within individual cells and across multicellular populations. SALVO outputs 30 parameters that describe Ca^2+ signal organization,[15] but for the purposes of this study, we focused on five parameters: oscillation rate (rate, Hz) and four other parameters that quantify the amplitude and temporal patterning of Ca^2+ oscillation: (1) amplitude heterogeneity index (AHI) and (2) temporal heterogeneity index (THI), statistical assessments of signal amplitude and temporal variability within single cells, respectively; (3) intertransient noise (ITN), defined as the Ca^2+ signal variability occurring between Ca^2+ oscillations and that extends the use of signal variability (SV) to measure point-by-point differences in very low-amplitude Ca^2+ signals[6],[10],[12]; and (4) synchronization, an index of the temporal coincidence of Ca^2+ oscillation maxima occurring across cells in the population. The calculation of these parameters is described in Supplementary Figure S1. SALVO is implemented using a Python-based computer program.[15] The detection of signal maxima and minima over a 30-s period in data obtained from 6 to 20 cells in each instance was performed using SALVO’s autodetection algorithms (based on spline detect or threshold detection methods) or by manual assignation of the start, peak, and end of each Ca^2+ spike. SALVO outputs were archived and interrogated using a custom-built SQL-based database system (DB Miner, CHG, NCS, SBJ).
Baseline assessments of Ca^2+ signals in fluo-4–loaded cells prior to the addition of drug (control) were established as described above.
After each addition and following a period of equilibration (approximately 90 s), fluo-4–dependent Ca^2+ signals were acquired for 30 s. Using this protocol, the same population of cells was imaged throughout the entire drug addition sequence.
In all experiments, operators were blinded to the identities of the drugs under test throughout all phases of postexperimental data analysis.
Supplementary Table 2. EC20 values for Ca2+ perturbation.
Drug concentrations (nM) that produced a 20% change from control values (no drug) were calculated for each SALVO parameter from regression analysis of […]
The effective therapeutic plasma concentration of free drug (ETPCunbound, nM) was calculated in Supplementary Table 1.
Calculate percentage effect size (E) for each SALVO parameter, normalized to Ew = E x λ control conditions, at each drug concentration Effect size (E,%) λ
Cumulative Ew for drug concentrations of 0.1, 1, 10, 100 and 1000 nM for The relationship between E and λ is given by […]

[1] = categories assigned by Redfern and colleagues; cited from earlier work

Row | Compound | Concentration reducing the rate of Ca2+ oscillation (Cytiva hSCCMs) [µM] | Effect on Ca2+ handling (SALVO parameters) (Cytiva hSCCMs) | TdP risk category [1] | Effect on intercellular synchronization (Cytiva hSCCMs)
1 | COc1ccc(CCN(C)CCCC(C#N)(c2ccc(OC)c(OC)c2)C(C)C)cc1OC (stereo not drawn) [Verapamil, verapamil] | > 10 | no measurable effect |  | 
2 | CC(CC(c1ccccc1)c1ccccc1)NC(C)(C)C (stereo not drawn) [terodiline] |  |  | category 2 | 
3 | CCCCc1oc2ccccc2c1C(=O)c1cc(I)c(OCCN(CC)CC)c(I)c1 [amiodarone] |  |  | category 1 | 
4 | COc1ccccc1OCC(O)CN1CCN(CC(=O)Nc2c(C)cccc2C)CC1 (stereo not drawn) [Ranolazine, ranolazine] |  | unchanged Ca^2+ cycling |  | reduced intercellular synchronization
